Laboratory results reported in PMC10884759, “Decreased pyruvate dehydrogenase activity in Tafazzin-deficient cells is caused by dysregulation of pyruvate dehydrogenase phosphatase 1 (PDP1)” (The Journal of Biological Chemistry, 2024).

Target: T1, PDP1 (PDH phosphatase 1; PDP1-His6) (Mus musculus, UniProt Q3UV70)
T1 construct: mature polypeptide (transit peptide removed; forward primer encodes ASTPQKFY after start Met), C-terminal His6 from pET-28a, E. coli BL21(DE3) with pGro7 chaperones, Ni-NTA purified
T1 sequence (Q3UV70 72-538): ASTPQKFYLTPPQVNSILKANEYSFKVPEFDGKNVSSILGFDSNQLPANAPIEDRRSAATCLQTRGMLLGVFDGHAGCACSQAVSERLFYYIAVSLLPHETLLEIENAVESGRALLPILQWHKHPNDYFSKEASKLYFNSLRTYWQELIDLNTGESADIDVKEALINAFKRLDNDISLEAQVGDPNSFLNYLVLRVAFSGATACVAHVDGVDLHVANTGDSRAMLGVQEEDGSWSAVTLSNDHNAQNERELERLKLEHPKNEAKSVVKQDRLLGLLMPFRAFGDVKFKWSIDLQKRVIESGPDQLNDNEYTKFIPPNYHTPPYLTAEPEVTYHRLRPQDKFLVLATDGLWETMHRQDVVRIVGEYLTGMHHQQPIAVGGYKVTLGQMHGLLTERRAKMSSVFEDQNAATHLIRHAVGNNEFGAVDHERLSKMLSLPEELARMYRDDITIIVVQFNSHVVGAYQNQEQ
Assay: protein-lipid overlay on PVDF, anti-His immunoblot
Format: binding
Details: lipid spotted at 31.25-500 μM, 1 μl; pH 7.5, 4 °C overnight, 3% BSA

Compound	protein-lipid overlay on PVDF, anti-His immunoblot
CCCCC/C=C\C/C=C\CCCCCCCC(=O)OC[C@H](COP(=O)(O)OCC(O)COP(=O)(O)OC[C@@H](COC(=O)CCCCCCC/C=C\C/C=C\CCCCC)OC(=O)CCCCCCC/C=C\C/C=C\CCCCC)OC(=O)CCCCCCC/C=C\C/C=C\CCCCC (some centres unmarked) [TLCL]	only PDP1 was shown to bind with TLCL (Fig. 2B)
CCCCCCCC/C=C\CCCCCCCC(=O)OC[C@H](COP(=O)(O)O)OC(=O)CCCCCCC/C=C\CCCCCCCC [phosphatidic acid]	PA is also bound to PDP1 (and to E1)
